# Measured values published in patent US20240125801A1, “MARKER FOR DIAGNOSIS OF NONALCOHOLIC FATTY LIVER DISEASE” (BREXOGEN INC., priority 2021, published 2024).
# Test system: mice model of NASH induced by MC-deficient diet
# Assay: MCD diet-induced NASH mice model
# Assay type: in vivo, C57BL/6 mice
# Settings: BxC-V37e 400 μg/head i.v. or dulaglutide 2 nmol/kg s.c., 4 weeks, FIG. 4
# Protocol: Six-week-old C57BL/6 male wild-type mice were obtained from Koatech Co., Ltd. and fed either chow diet (n=6) or a methionine/choline-deficient (MCD) diet (n=15) for […]. Animal care and procedures were approved in the rodent animal facility area of Knotus Co., Ltd. (Korea; Approval Number: 19-KE-265). After the MCD diet was fed for 18 weeks, 2 nmol/kg dulaglutide (GLP-1 receptor agonist) was subcutaneously injected into mice every other day for 4 weeks, and 400 μg/head BxC-e and BxC-V37e were intravenously injected once a day, three times a week, for 4 weeks. At the end of the experiments, the mice were anesthetized, and their serum and liver tissues were collected. […]
# Serum samples were collected 4 weeks after the initiation of BxC-V37e injection, and the following parameters were measured using a blood biochemical analyzer (7180, Hitachi, Japan): ALT (Alanine transaminase), AST (Aspartate transaminase), TG (Triglyceride), glucose, TC (total cholesterol), HDL_C (high-density lipoprotein cholesterol), LDL_C (low-density lipoprotein cholesterol), LDH (lactate dehydrogenase), and GGT (gamma-glutamyltransferase).
# Liver tissues were fixed in 10% paraformaldehyde and subjected to general tissue treatment, such as cutting, dehydration, and paraffin embedding. […] Both steatosis and hypertrophy were evaluated at magnifications of 40× to 100×. […]
substance,measurement,value
dulaglutide,entire liver morphology (colour),No difference
